According to patent US20020137929A1, “1 - (3-heterocyclylphenyl) isothiourea, -isourea, -guanidine and -amidine herbicidal agents” (Intellectual Property Department, BASF Aktiengesellschaft, priority 1998, published 2002):

Tests used:
CYPSE (Flatsedge) = test: Postemergence weed control under flooded paddy conditions; assay type: in vivo, Cyperus serotinus; conditions: postemergence weeds, 3-4 weeks after treatment
Outline: (§1)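 Herbicidal effect is judged by eye on a 0–9 scale versus control, 3–4 weeks after dosing. Dosing is into flood water kept 1.5–3 cm over the soil, at about 0.0313–0.500 kg/ha in aqueous/acetone 50/50 v/v, on 3–5 cm weeds and 1.5–2.5-leaf rice seedlings.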

[1] = test system: ECHORC (Watergrass (Calif.)); test: Preemergence weed control under flooded paddy conditions; assay type: in vivo, Echinochloa oryzoides; conditions: rated 3-4 weeks after treatment
Outline: (§2)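 Herbicidal effect is scored visually on a 0-9 scale against an untreated control, three to four weeks after compounds are pipetted into the flood water (1.5 to 3 cm deep) over seeds planted in silt loam at 0.5 cm depth. Rates: about 0.0313 to 0.500 kg/ha.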

ECHCG (Barnyardgrass) = test: Postemergence herbicidal evaluation; assay type: in vivo, Echinochloa crus-galli
Outline: (§3)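 Visual 0–9 rating versus control (stand, vigor, malformation, size, chlorosis, overall appearance), taken four to five weeks post-spray. Two-week-old seedlings received roughly 0.0156–0.500 kg/ha active in acetone/water (50/50) with 0.5% TWEEN 20 via nozzle at 40 psi.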

CYPIR (Rice Flatsedge) [2] = test: Postemergence weed control under flooded paddy conditions; assay type: in vivo, Cyperus iria; conditions: postemergence weeds, 3-4 weeks after treatment
Outline: as §1

ABUTH (Velvetleaf) = test: Postemergence herbicidal evaluation; assay type: in vivo, Abutilon theophrasti
Outline: as §3

SETVI (Foxtail, Green) = test: Postemergence herbicidal evaluation; assay type: in vivo, Setaria viridis
Outline: as §3

CYPIR (Rice Flatsedge) [3] = test: Preemergence weed control under flooded paddy conditions; assay type: in vivo, Cyperus iria; conditions: rated 3-4 weeks after treatment
Outline: as §2

MOOVA (Monochoria) = test: as above; assay type: in vivo, Monochoria vaginalis; conditions: rated 3-4 weeks after treatment
Outline: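 Visual injury scored 0-9 against control three to four weeks post-treatment, greenhouse-grown. Application: acetone/water (50/50) solutions dosed directly into flood water (1.5-3 cm over silt loam, planted top 0.5 cm), roughly 0.0313 to 0.500 kg/ha active ingredient.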

[4] = test system: TRZAWR (Wheat, Winter, cv Riband); test: Preemergence herbicidal evaluation; assay type: in vivo, Triticum aestivum; conditions: rated 4-5 weeks after treatment
Outline: (§4)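 Herbicidal effect scored visually, 0-9, at 4 to 5 weeks against a control; compound applied preemergence by aqueous acetone spray to seeded soil at about 0.0156 to 0.500 kg/ha.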

ORYSAT (Rice, Tebonnet) = test: Postemergence herbicidal evaluation; assay type: in vivo, Oryza sativa, (L.) Tebonnet
Outline: as §3

ZEAMX (Corn, Field) = test: Preemergence herbicidal evaluation; assay type: in vivo, Zea mays; conditions: rated 4-5 weeks after treatment
Outline: as §4

[5] = test system: IPOHE (Morningglory, Ivyleaf); test: Preemergence herbicidal evaluation; assay type: in vivo, Ipomoea hederacea; conditions: rated 4-5 weeks after treatment
Outline: as §4

GALAP (Galium) = test: Postemergence herbicidal evaluation; assay type: in vivo, Galium aparine
Outline: as §3

[6] = test system: SAGPY (Arrowhead (Pygmaea)); test: Postemergence weed control under flooded paddy conditions; assay type: in vivo, Sagittaria pygmaea; conditions: postemergence weeds, 3-4 weeks after treatment
Outline: as §1

CCOC(=O)CN1C(=O)CS(=O)(=O)C1=Nc1cc(-n2c(=O)cc(C(F)(F)F)n(C)c2=O)c(F)cc1Cl [Compound 46, 2-{{2-Chloro-5-[3,6-dihydro-3-methyl-2,6-dioxo-4-(trifluoromethyl)-1(2H)-pyrimidinyl]-4-fluoro-phenyl}imino}-4-oxo-3-thiazolidineacetic acid, ethyl ester, 1,1-dioxide]
Herbicidal rating CYPSE (CYPSE (Flatsedge); rate 0.0313 kg/ha): 0.0
Herbicidal rating CYPSE (CYPSE (Flatsedge); rate 0.0625 kg/ha): 0.0
Herbicidal rating CYPSE (CYPSE (Flatsedge); rate 0.1250 kg/ha): 0.0
Herbicidal rating CYPSE (CYPSE (Flatsedge); rate 0.2500 kg/ha): 6.0
Herbicidal rating ECHORC ([1]; 0.0313 kg/ha): 0.0
Herbicidal rating ECHORC ([1]; 0.0625 kg/ha): 0.0
Herbicidal rating ECHORC ([1]; 0.1250 kg/ha): 0.0
Herbicidal rating ECHORC ([1]; 0.2500 kg/ha): 4.0
Postemergence herbicidal rating ECHCG (ECHCG (Barnyardgrass); Rate 0.0313 kg/ha): 0.0
Postemergence herbicidal rating ECHCG (ECHCG (Barnyardgrass); Rate 0.0625 kg/ha): 0.0
Herbicidal rating CYPIR (CYPIR (Rice Flatsedge) [2]; rate 0.0313 kg/ha): 0.0
Herbicidal rating CYPIR (CYPIR (Rice Flatsedge) [2]; rate 0.0625 kg/ha): 0.0
Herbicidal rating CYPIR (CYPIR (Rice Flatsedge) [2]; rate 0.1250 kg/ha): 0.0
Herbicidal rating CYPIR (CYPIR (Rice Flatsedge) [2]; rate 0.2500 kg/ha): 0.0
Postemergence herbicidal rating ABUTH (ABUTH (Velvetleaf); Rate 0.0313 kg/ha): 4.0
Postemergence herbicidal rating ABUTH (ABUTH (Velvetleaf); Rate 0.0625 kg/ha): 9.0
Postemergence herbicidal rating SETVI (SETVI (Foxtail, Green); Rate 0.0313 kg/ha): 0.0
Postemergence herbicidal rating SETVI (SETVI (Foxtail, Green); Rate 0.0625 kg/ha): 0.0
Herbicidal rating CYPIR (CYPIR (Rice Flatsedge) [3]; 0.0313 kg/ha): 0.0
Herbicidal rating CYPIR (CYPIR (Rice Flatsedge) [3]; 0.0625 kg/ha): 0.0
Herbicidal rating CYPIR (CYPIR (Rice Flatsedge) [3]; 0.1250 kg/ha): 0.0
Herbicidal rating CYPIR (CYPIR (Rice Flatsedge) [3]; 0.2500 kg/ha): 0.0
Herbicidal rating MOOVA (MOOVA (Monochoria); 0.0313 kg/ha): 3.0
Herbicidal rating MOOVA (MOOVA (Monochoria); 0.0625 kg/ha): 4.0
Herbicidal rating MOOVA (MOOVA (Monochoria); 0.1250 kg/ha): 6.0
Herbicidal rating MOOVA (MOOVA (Monochoria); 0.2500 kg/ha): 7.0
Preemergence herbicidal rating TRZAWR ([4]; rate 0.1250 kg/ha): 0.0
Preemergence herbicidal rating TRZAWR ([4]; rate 0.2500 kg/ha): 0.0
Postemergence herbicidal rating ORYSAT (ORYSAT (Rice, Tebonnet); Rate 0.0313 kg/ha): 1.0
Postemergence herbicidal rating ORYSAT (ORYSAT (Rice, Tebonnet); Rate 0.0625 kg/ha): 1.5
Preemergence herbicidal rating ZEAMX (ZEAMX (Corn, Field); rate 0.1250 kg/ha): 0.0
Preemergence herbicidal rating ZEAMX (ZEAMX (Corn, Field); rate 0.2500 kg/ha): 1.0
Preemergence herbicidal rating IPOHE ([5]; rate 0.1250 kg/ha): 0.0
Preemergence herbicidal rating IPOHE ([5]; rate 0.2500 kg/ha): 1.0
Postemergence herbicidal rating GALAP (GALAP (Galium); Rate 0.0313 kg/ha): 0.0
Postemergence herbicidal rating GALAP (GALAP (Galium); Rate 0.0625 kg/ha): 0.0
Herbicidal rating SAGPY ([6]; rate 0.0313 kg/ha): 0.0
Herbicidal rating SAGPY ([6]; rate 0.0625 kg/ha): 0.0
Herbicidal rating SAGPY ([6]; rate 0.1250 kg/ha): 0.0
Herbicidal rating SAGPY ([6]; rate 0.2500 kg/ha): 3.0
